In patent US6569878B1, “Substituted 4-amino-thiazol-2-yl compounds as cyclin-dependent kinase inhibitors” (Agouron Pharmaceuticals Inc., priority 1997, dated 2003):
Where two headings read alike, the source gives them in different places.

What was measured:
[1] = molecular target: T1, CDK2/cyclin A (Homo sapiens, UniProt P24941); experiment: Inhibition of CDK2/cyclin A retinoblastoma kinase activity; type: biochemical; details: read-out: Ki CDK 2/A
T1 construct: made in house; host or cells: CDK2: insect cells (baculovirus); cyclin A: E. coli, then limited proteolysis
Procedure: Cyclin-dependent kinase activity was measured by quantifying the enzyme-catalyzed, time-dependent incorporation of radioactive phosphate from [^32P]ATP or [^33P]ATP into a protein substrate. Unless noted otherwise, assays were performed in 96-well plates in a total volume of 50 μL, in the presence of 10 mM HEPES (N-[2-hydroxyethyl]piperazine-N′-[2-ethanesulfonic acid]) (pH 7.4), 10 mM MgCl2, 25 μM adenosine triphosphate (ATP), 1 mg/mL ovalbumin, 5 μg/mL leupeptin, 1 mM dithiothreitol, 10 mM β-glycerophosphate, 0.1 mM sodium vanadate, 1 mM sodium fluoride, 2.5 mM ethylene glycol-bis(β-aminoethyl ether)-N,N,N′N′-tetraacetic acid (EGTA), 2% (v/v) dimethylsulfoxide, and 0.03-0.4 μCi [^32/33P]ATP per reaction. Reactions were initiated with enzyme, incubated at 30° C., and terminated after 20 minutes by the addition of ethylenediaminetetraacetic acid (EDTA) to 250 mM. The phosphorylated substrate was then captured on a nitrocellulose or phosphocellulose membrane using a 96-well filtration manifold, and unincorporated radioactivity was removed by repeated washing with 0.85% phosphoric acid. Radioactivity was quantified by exposing the dried membranes to a phosphorimager.
(§1) Apparent Ki values were measured by assaying enzyme activity in the presence of different inhibitor compound concentrations and subtracting the background radioactivity measured in the absence of enzyme. The kinetic parameters (kcat, Km for ATP) were measured for each enzyme under the usual assay conditions by determining the dependence of initial rates on ATP concentration. Inhibition data were fit to an equation for competitive inhibition using Kaleidagraph (Synergy Software), or were fit to an equation for competitive tight-binding inhibition using the software KineTic (BioKin, Ltd.).
CDK2 was purified using published methodology (Rosenblatt et al., “Purification and Crystallization of Human Cyclin-dependent Kinase 2,” J. Mol. Biol., vol. 230, 1993, pp. 1317-1319) from insect cells that had been infected with a baculovirus expression vector. […] Purified, proteolyzed cyclin A was included in the assay at a three- to five-fold molar excess to CDK2. Alternatively, a complex of CDK2 and proteolyzed cyclin A was prepared and purified by gel filtration. The substrate for this assay was the same Rb substrate fragment used for the CDK4 assays, and the methodology of the CDK2/cyclin A and the CDK4/cyclin D3 assays was essentially the same, except that CDK2 was present at 150 nM or 5 nM. Ki values were measured as described above.

[2] = molecular target: T2, complex of human CDK4 and cyclin D3 (Homo sapiens, UniProt P11802); experiment: Inhibition of CDK4/cyclin D retinoblastoma kinase activity (D-type cyclin is D3); type: biochemical; details: superscript a: D-type cyclin is D3; apparent Ki; read-out: Ki CDK 4/D
T2 construct: made in house; host or cells: insect cells, co-infected with baculovirus
Procedure: Cyclin-dependent kinase activity was measured by quantifying the enzyme-catalyzed, time-dependent incorporation of radioactive phosphate from [^32P]ATP or [^33P]ATP into a protein substrate. […] Reactions were initiated with enzyme, incubated at 30° C., and terminated after 20 minutes by the addition of ethylenediaminetetraacetic acid (EDTA) to 250 mM. […] Radioactivity was quantified by exposing the dried membranes to a phosphorimager.
as §1
Phosphorylated Rb substrate was captured by microfiltration on a nitrocellulose membrane and quantified using a phosphorimager as described above. For measurement of tight-binding inhibitors, the enzyme complex concentration was lowered to 5 nM, and the assay duration was extended to 60 minutes, during which the time-dependence of product formation was linear.

T2 sequence (P11802 whole entry): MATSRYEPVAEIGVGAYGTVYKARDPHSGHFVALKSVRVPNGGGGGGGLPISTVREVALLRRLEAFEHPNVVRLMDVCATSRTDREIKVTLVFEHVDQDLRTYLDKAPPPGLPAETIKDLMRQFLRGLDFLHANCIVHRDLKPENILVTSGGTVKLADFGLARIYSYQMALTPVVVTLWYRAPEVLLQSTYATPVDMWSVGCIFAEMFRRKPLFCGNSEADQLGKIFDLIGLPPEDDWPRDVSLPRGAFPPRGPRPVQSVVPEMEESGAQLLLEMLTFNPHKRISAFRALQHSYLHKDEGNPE
T2 sequence (P30281 whole entry partner): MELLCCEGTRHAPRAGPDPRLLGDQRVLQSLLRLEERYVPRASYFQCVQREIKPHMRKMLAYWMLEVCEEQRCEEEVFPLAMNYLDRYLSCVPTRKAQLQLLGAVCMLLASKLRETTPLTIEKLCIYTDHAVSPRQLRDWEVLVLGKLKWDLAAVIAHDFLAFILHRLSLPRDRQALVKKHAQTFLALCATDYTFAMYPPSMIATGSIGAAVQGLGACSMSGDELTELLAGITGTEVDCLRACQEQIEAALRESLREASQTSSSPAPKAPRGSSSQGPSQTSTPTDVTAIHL

Compound	Ki [1]	Ki [2]	Ki ([1]; μM)
Cc1ccc(C)c(C(=O)c2sc(Nc3ccc4nc[nH]c4c3)nc2N)c1C [C(58), [4-Amino-2-(1H-benzoimidazol-6-ylamino)-thiazol-5-yl]-(2,3,6-trimethyl-phenyl)-methanone]	0.306 µM	34 nM	–
Cc1cccc(Br)c1C(=O)c1sc(Nc2ccc3nc[nH]c3c2)nc1N [C(66), [4-Amino-2-(1H-benzoimidazol-6-ylamino)-thiazol-5-yl]-(2-bromo-6-methyl-phenyl)-methanone]	0.574 µM	53 nM	–
Cc1cc(C)c(C(=O)c2sc(Nc3ccc4nc[nH]c4c3)nc2N)c(C)c1 [C(57), [4-Amino-2-(1H-benzoimidazol-6-ylamino)-thiazol-5-yl]-(2,4,6-trimethyl-phenyl)-methanone]	0.259 µM	30 nM	–
Cc1cc(C(=O)c2sc(Nc3ccc(N4CCN(C)CC4)cc3)nc2N)c(C)s1 [C(90), {4-Amino-2-[4-(4-methyl-piperazin-1-yl)-phenylamino]-thiazol-5-yl}-(2,5-dimethyl-thiophen-3-yl)-methanone]	0.771 µM	27 nM	–
COc1ccc(C(=O)c2sc(Nc3ccc(N(C)C)cc3)nc2N)cc1 [C(3), [4-Amino-2-(4-dimethylamino-phenylamino)-thiazol-5-yl]-(4-methoxy-phenyl)-methanone]	4.7 µM	1200 nM	–
Nc1nc(Nc2ccc3nc[nH]c3c2)sc1C(=O)[C@@H]1CCCN1C(=O)OCc1ccccc1 [C(64), 2S-[4-Amino-2-(1H-benzoimidazol-5-yl-amino)-thiazole-5-carbonyl]-N-carbobenzyloxy-pyrrolidine]	–	44000 nM	42 µM
Nc1nc(Nc2ccc(C(=O)O)cc2)sc1C(=O)c1c(Cl)cccc1Cl [I(25)]	0.28 µM	639 nM	–
CC(=O)Nc1ccc(Cl)c(C(=O)c2sc(Nc3ccc(N4CCN(C(=O)OC(C)(C)C)CC4)cc3)nc2N)c1Cl [C(106)]	1.46 µM	134 nM	–
COc1ccc(C(=O)c2sc(Nc3ccc(S(N)(=O)=O)cc3)nc2N)c(OC)c1 [C(33), 4-[4-Amino-5-(2,4-dimethoxy-benzoyl)-thiazol-2-ylamino]-benzenesulfonamide]	0.02 µM	57 nM	–
CC(C)(C)OC(=O)N1CCN(c2ccc(Nc3nc(N)c(C(=O)c4c(Cl)cccc4Cl)s3)cc2)CC1 [C(105), 4-Amino-2-[4-(1-tert-butoxycarbonyl-piperazine-4-yl)-phenylamino]-thiazol-5-yl-(2,6-dichlorophenyl)-methanone]	1.06 µM	60 nM	–
Cc1c(C(=O)c2sc(Nc3ccc(S(N)(=O)=O)cc3)nc2N)ncn1C [C(76), 4-[4-Amino-5-(1,5-dimethyl-1H-imidazole-4-carbonyl)-thiazol-2-ylamino]-benzenesulfonamide]	0.507 µM	2000 nM	–
Nc1nc(Nc2ccc3nc[nH]c3c2)sc1C(=O)c1c(Cl)ccc([N+](=O)[O-])c1Cl [C(89), [4-Amino-2-(1H-benzoimidazol-6-ylamino)-thiazol-5-yl]-(2,6-dichloro-3-nitro-phenyl)-methanone]	0.326 µM	55 nM	–
Nc1nc(Nc2ccc3nc[nH]c3c2)sc1C(=O)c1cc(Cl)sc1Cl [C(93), [4-Amino-2-(1H-benzoimidazol-6-ylamino)-thiazol-5-yl]-(2,5-dichloro-thiophen-3-yl)-methanone]	1.04 µM	285 nM	–
Nc1nc(Nc2ccc(-c3ncc[nH]3)cc2)sc1C(=O)c1c(Cl)cc(C(F)(F)F)cc1Cl [C(53), {4-Amino-2-[4-(1H-imidazol-2-yl)-phenylamino]-thiazol-5-yl}-(2,6-dichloro-4-trifluoromethyl-phenyl)-methanone]	0.18 µM	85 nM	–
Cc1ccsc1C(=O)c1sc(Nc2ccc(-n3ccnc3)cc2)nc1N [C(42), [4-Amino-2-(4-imidazol-1-yl-phenylamino)-thiazol-5-yl]-(3-methyl-thiophen-2-yl)-methanone]	0.207 µM	750 nM	–
Cc1cccc(-c2ccccc2)c1C(=O)c1sc(Nc2ccc(N3CCOCC3)cc2)nc1N [C(83), [4-Amino-2-(4-morpholin-4-yl-phenylamino)-thiazol-5-yl]-(3-methyl-biphenyl-2-yl)-methanone]	–	1800 nM	32 µM
Nc1nc(Nc2ccc(N3CCOCC3)cc2)sc1C(=O)c1c(Cl)ccc([N+](=O)[O-])c1Cl [C(75), [4-Amino-2-(4-morpholin-4-yl-phenylamino)-thiazol-5-yl]-(2,6-dichloro-3-nitro-phenyl)-methanone]	1.08 µM	23 nM	–
CCOC(=O)c1ccc(C(=O)c2sc(Nc3ccc(S(N)(=O)=O)cc3)nc2N)cc1 [C(34), Ethyl 4-[4-Amino-2-(4-sulfamoyl-phenylamino)-thiazole-5-carbonyl]-benzoate]	0.131 µM	140 nM	–
Cc1cccc(C)c1C(=O)c1sc(Nc2ccc3nc[nH]c3c2)nc1N [C(60), [4-Amino-2-(1H-benzoimidazol-6-ylamino)-thiazol-5-yl]-(2,6-dimethyl-phenyl)-methanone]	0.574 µM	56 nM	–
Nc1nc(Nc2ccc(S(N)(=O)=O)cc2)sc1C(=O)c1ccc2c(c1)CCC(=O)N2 [C(51), 4-[4-Amino-5-(2-oxo-1,2,3,4-tetrahydro-quinoline-6-carbonyl)-thiazol-2-ylamino]-benzenesulfonamide]	0.0333 µM	85 nM	–
CN(CC(=O)OC(C)(C)C)c1ccc(Nc2nc(N)c(C(=O)c3c(F)cccc3F)s2)cc1 [C(103), tert-Butyl({4-[4-Amino-5-(2,6-difluoro-benzoyl)-thiazol-2-ylamino]-phenyl}-methyl-amino)-acetate]	0.595 µM	110 nM	–
CCOC(=O)c1ccc(Nc2nc(N)c(C(=O)c3c(Cl)cccc3Cl)s2)cc1 [C(56), Ethyl 4-[4-Amino-5-(2,6-dichloro-benzoyl)-thiazol-2-ylamino]-benzoate]	1.02 µM	195 nM	–
Cc1cccc(Br)c1C(=O)c1sc(Nc2ccc(N3CCOCC3)cc2)nc1N [C(84), [4-Amino-2-(4-morpholin-4-yl-phenylamino)-thiazol-5-yl]-(2-bromo-6-methyl-phenyl)-methanone]	1.04 µM	53 nM	–
Cc1ccc(C(=O)c2sc(Nc3ccccc3)nc2N)cc1 [I(12)]	4.17 µM	380 nM	–
Nc1nc(Nc2ccc3nc[nH]c3c2)sc1C(=O)c1c(F)cccc1F [C(79), [4-Amino-2-(1H-benzoimidazol-6-ylamino)-thiazol-5-yl]-(2,6-difluoro-phenyl)-methanone]	0.162 µM	54 nM	–
Nc1ccc(Cl)c(C(=O)c2sc(Nc3ccc4nc[nH]c4c3)nc2N)c1Cl [G, [4-Amino-2-(1H-benzoimidazol-6-ylamino)-thiazol-5-yl]-(3-amino-2,6-dichloro-phenyl)-methanone]	0.178 µM	23 nM	–
Nc1nc(Nc2ccc(S(N)(=O)=O)cc2)sc1C(=O)[C@@H]1CCCN1C(=O)OCc1ccccc1 [C(65), 2S-[4-Amino-2-(4-sulfamoyl-phenylamino)-thiazole-5-carbonyl]-N-carbobenzyloxy-pyrrolidine]	–	38000 nM	14.3 µM
Cc1ccc(C(=O)c2sc(Nc3ccc(N4CCOCC4)cc3)nc2N)c(C)c1 [C(54), [4-Amino-2-(4-morpholin-4-yl-phenylamino)-thiazol-5-yl]-(2,4-dimethyl-phenyl)-methanone]	0.453 µM	34 nM	–
Cc1cccc([N+](=O)[O-])c1C(=O)c1sc(Nc2ccc3nc[nH]c3c2)nc1N [C(61), [4-Amino-2-(1H-benzoimidazol-6-ylamino)-thiazol-5-yl]-(2-methyl-6-nitro-phenyl)-methanone]	1.2 µM	120 nM	–
Cc1cccc(-c2ccccc2)c1C(=O)c1sc(Nc2ccc3nc[nH]c3c2)nc1N [C(67), [4-Amino-2-(1H-benzoimidazol-6-ylamino)-thiazol-5-yl]-(3-methyl-biphenyl-2-yl)-methanone]	–	3170 nM	13.2 µM
